One block for each molecule: values may come before it.
How the values were obtained:
[1] = test system: Murine embryonic mesenchymal stem cells (mMSCs) C3H10T1/2; experiment: Inhibition of contractility in mMSCs; type: cell-based; conditions: for osteogenic marker expression: mMSCs on all substrates, 20 μM inhibitor; for Staining for pMLC / expression of stemness markers (Sca1, CD29): mMSCs; for Staining for pMLC: 10 and 20 μM inhibitor; for expression of stemness markers (Sca1, CD29): 15 days, basal conditions with inhibitor
VEGFR-2 = VEGFR-2 (Homo sapiens, UniProt P35968)
Protocol: The most direct way to look at VEGF effect on downstream signaling was to assess its receptor phosphorylation. An immunofluorescence test for presence of phosphorylated VEGFR-2 was performed on standard HUVEC culture on tissue plastics, when cells were stimulated with 25 ng/ml of VEGF for two different time periods (2 min and 30 min). […] Therefore it was decided to assay phosphorylation of one of the downstream effectors, ERK1/2 which is activated via MAPK branch of GF receptor signaling.

ERK1/2 = ERK1/2 phosphorylation ELISA in HUVEC; type: cell-based, human; conditions: 30 min
Protocol: VEGF bound to substrates was assayed indirectly by measuring remaining VEGF in coating solution with a sandwich ELISA kit according to the manufacturer's instructions (DuoSetDY293B, R&D Systems). Levels of phosphorylation of ERK1/2 in HUVECs seeded onto functionalized surfaces were assessed after 30 min incubation using DuoSet ELISA kit following the manufacturer's instructions (DuoSetDYC1018B, R&D Systems). Human umbilical vein endothelial cells (HUVEC) (Cellworks) were maintained in HLVEC complete media (Cellworks). For any experiment, cells with not higher than 10 population doublings were used (usually corresponding up to P5). For network formation experiments, cell seeding density was optimized, and cells were eventually seeded at 10,000 cells/cm^2. Seeding was done on protein-functionalized and control polymer-coated substrates, and cells were left to adhere in a CO2 incubator at 37° C. After 16 h, medium was removed and replaced with fibrinogen solution (20 mg/ml) in HLVEC complete media, containing also 50 U/ml of thrombin and 1.2 mg/ml of aprotinin; to allow complete fibrinogen clotting, samples were placed in CO2 incubator for 1 h. After clotting, fibrin matrix was covered with 0.5 ml HLVEC complete media with 25 ng/ml of VEGF where required, and samples were kept at 37° C. for 6 day period, with media changed every second day.

[2] = test system: Human bone marrow mesenchymal stem cells (hMSCs); experiment: Alkaline phosphatase staining of hMSCs; type: cell-based; conditions: 28 days, noggin 50 ng/ml
Protocol: Human bone marrow mesenchymal stem cells (hMSCs) from Promocell were maintained in basal media (αMEM, 10% FBS, 1% P/S, 1% fungizone, 2 mM L-glutamine, 1 ng/ml FGF-2) at 37° C. with 5% CO2. Cells were seeded onto the materials at 10^4 cells/cm2 using seeding media (DMEM high glucose, 1% P/S, 1% FBS,) and media were changed twice a week. For all cultures the first 2 hours (initial cell adhesion) were in absence of serum and GF. Cells were used at passages P0-P3. Each experiment was performed in triplicate.
Cells were cultured on materials for 28 days. Noggin (50 ng/ml) was added in a set of samples and phosphate deposition was analysed by an Alkaline Phosphatase assay (Sigma, 86C-1KT). Cells were fixed with the fixative solution (citrate-acetone-formaldehide solution) at RT for 30 s. Afterwards, samples were stained with the alkaline-dye mixture and incubated at RT in darkness for 15 min. Samples were counterstained for 2 minutes with neutral red solution and rinsed in tap water.

[3] = target: Fibronectin (FN) from human plasma adsorbed on poly(ethyl acrylate) (PEA), organised into a fibrillar (nano)network (human) (UniProt P02751); experiment: ELISA; BMP-2 adsorbed from 5 µg/ml on FN-coated polymer implant tubes
[4] = target: Fibronectin (FN) from human plasma adsorbed on poly(ethyl acrylate) (PEA), organised into a fibrillar (nano)network (human) (UniProt P02751); experiment: ELISA; BMP-2 adsorbed on FN-coated polymer implant tubes
[5] = target: Fibronectin (FN) from human plasma adsorbed on poly(ethyl acrylate) (PEA), organised into a fibrillar (nano)network (human) (UniProt P02751); experiment: sandwich ELISA of BMP-2 released from FN-coated surfaces

Chain of VEGFR-2 (P35968 20-1356): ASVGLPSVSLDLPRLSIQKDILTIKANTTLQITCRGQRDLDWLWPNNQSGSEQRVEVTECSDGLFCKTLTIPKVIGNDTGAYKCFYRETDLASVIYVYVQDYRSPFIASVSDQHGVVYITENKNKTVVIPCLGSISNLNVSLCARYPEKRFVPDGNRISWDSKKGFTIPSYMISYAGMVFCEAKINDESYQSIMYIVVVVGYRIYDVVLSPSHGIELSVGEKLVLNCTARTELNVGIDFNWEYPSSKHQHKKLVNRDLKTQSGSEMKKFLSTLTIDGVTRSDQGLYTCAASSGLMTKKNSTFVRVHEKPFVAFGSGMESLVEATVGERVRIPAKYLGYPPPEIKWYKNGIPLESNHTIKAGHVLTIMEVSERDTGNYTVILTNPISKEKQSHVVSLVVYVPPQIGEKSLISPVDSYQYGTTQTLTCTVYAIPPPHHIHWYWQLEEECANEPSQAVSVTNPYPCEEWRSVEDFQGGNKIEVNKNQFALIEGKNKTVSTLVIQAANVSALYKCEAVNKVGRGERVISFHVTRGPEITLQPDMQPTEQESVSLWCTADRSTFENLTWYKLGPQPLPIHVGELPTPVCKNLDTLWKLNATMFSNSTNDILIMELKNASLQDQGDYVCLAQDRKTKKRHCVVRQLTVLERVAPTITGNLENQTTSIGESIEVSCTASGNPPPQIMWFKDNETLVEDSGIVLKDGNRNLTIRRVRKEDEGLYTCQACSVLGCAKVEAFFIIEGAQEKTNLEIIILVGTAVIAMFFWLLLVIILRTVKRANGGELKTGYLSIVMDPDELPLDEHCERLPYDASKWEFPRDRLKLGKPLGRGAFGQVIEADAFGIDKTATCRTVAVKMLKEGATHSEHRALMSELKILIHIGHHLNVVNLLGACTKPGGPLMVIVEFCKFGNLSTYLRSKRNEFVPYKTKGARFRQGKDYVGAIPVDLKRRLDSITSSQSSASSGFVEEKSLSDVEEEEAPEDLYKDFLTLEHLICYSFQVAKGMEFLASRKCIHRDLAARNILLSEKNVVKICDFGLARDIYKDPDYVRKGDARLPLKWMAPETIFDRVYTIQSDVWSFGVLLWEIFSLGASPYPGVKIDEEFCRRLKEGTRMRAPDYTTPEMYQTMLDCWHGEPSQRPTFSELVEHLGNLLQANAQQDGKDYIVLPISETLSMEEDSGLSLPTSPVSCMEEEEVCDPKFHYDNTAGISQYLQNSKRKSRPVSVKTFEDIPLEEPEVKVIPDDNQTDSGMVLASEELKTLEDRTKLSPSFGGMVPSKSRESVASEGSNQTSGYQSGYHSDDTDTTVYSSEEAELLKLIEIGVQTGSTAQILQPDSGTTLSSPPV

Molecule: C[C@@H](N)[C@H]1CC[C@H](C(=O)Nc2ccncc2)CC1 [Y-27632]
osteogenic marker expression [1]: greatly reduced
Staining for pMLC [1]: reduced in a dose-dependent manner
expression of stemness markers (Sca1, CD29) [1]: strongly reduced

Molecule: Cc1ccc2c(c1)C(=O)C1(O)CCN(c3ccccc3)C1=N2 (centres unmarked) [blebbistatin]
osteogenic marker expression [1]: greatly reduced
Staining for pMLC [1]: reduced in a dose-dependent manner
expression of stemness markers (Sca1, CD29) [1]: strongly reduced

Molecule: VEGF
phosphorylated VEGFR-2 after 2 min (VEGFR-2): present
phosphorylated VEGFR-2 after 30 min (VEGFR-2): no phosphorylation was detected
ERK1/2 phosphorylation, VEGF present in the medium (ERK1/2; PEA samples vs PEA sample without VEGF): did not show any difference
ERK1/2 phosphorylation, VEGF coated on PEA (ERK1/2; vs PEA without bound VEGF): higher level

B1: noggin: used as BMP-2 inhibitor to prevent activity (50 ng/ml) (protein)
chain: QHYLHIRPAPSDNLPLVDLIEHPDPIFDPKEKDLNETLLRSLLGGHYDPGFMATSPPEDRPGGGGGAAGGAEDLAELDQLLRQRPSGAMPSEIKGLEFSEGLAQGKKQRLSKKLRRKLQMWLWSQTFCPVLYAWNDLGSRFWPRYVKVGSCFSKRSCSVPEGMVCKPSKSVHLTVLRWRCQRRGGQRCGWIPIQYPIISECKCSC
PEA driven FN/BMP-2 osteogenic differentiation (ALP) [2]: reduced

surface density [3]: 100 ng/cm^2
amount of BMP-2 on the coated tube [4]: 15 ng
BMP-2 released after 14 days [5]: < 10%
B2: BMP-2 (R&D Systems, 355-BM or 355-BM/CF) (ligand, UniProt P12643 283-396, looked up)
chain: QAKHKQRKRLKSSCKRHPLYVDFSDVGWNDWIVAPPGYHAFYCHGECPFPLADHLNSTNHAIVQTLVNSVNSKIPKACCVPTELSAISMLYLDENEKVVLKNYQDMVVEGCGCR

From patent US11872324B2, “Materials and methods for tissue regeneration” (The University Court of the University of Glasgow, priority 2015, dated 2024)
